We go through 102 molecules from ChEMBL document CHEMBL3507680, “University of Dundee, Gates Library screen for HepG2 cell viability”.

A short description of the data set: Human HepG2 cell viability assay in 384 well format. As to conditions: HepG2 cells, read-out: Inhibition. Also noted: dose 125 nL, time 70.5 hour; cytotoxicity at 70.5 h: concentration not given beside the values. Format: toxicity, cell-based.

`COc1ccc(Br)cc1CN(C)C(C)c1nc(C(C)C)no1` (configuration not stated): the cytotoxicity at 70.5 h is -19.6%. Next, `O=C(NC1CCN(c2cccc(OC(F)(F)F)c2)C1=O)C1CC1` (configuration not stated): 0.481%; `O=C(CS(=O)(=O)C1CCCC1)NC1CCc2nccn2C1` (configuration not stated): -9.54%; `Cc1cn2c(n1)CCC(NC(=O)CNS(C)(=O)=O)C2` (configuration not stated): -4.61%. `CCCC(NC(=O)c1occc1C)c1nnn[nH]1` (configuration not stated): the cytotoxicity at 70.5 h was -1.34%.

For `Cc1cccc(NC(=O)[C@@H]2CCCN2Cc2nnc(C(C)C)n2C)n1`, the cytotoxicity at 70.5 h was -1.83%. For `O=C(CCN1CCCC1c1cccc2c1OCCO2)N1CCOCC1` (configuration not stated), the cytotoxicity at 70.5 h was -2.76%. Next, `O=C(CCc1ncc(-c2ccc(F)cc2)o1)NCCN1CCOCC1`: -3.91%; `O=C(C1CC(=O)N(c2ccccc2Br)C1)N1CCN(CC(F)(F)F)CC1` (configuration not stated): -8.32%. Next, `CCC(C)(C)NCc1nc(C(C)(C)NC(=O)OC(C)(C)C)no1`: -10.2%; `O=C(NCCNS(=O)(=O)c1cc(F)cc(F)c1)c1ccoc1`: -8.89%. For `COc1ccccc1NC(=O)Cc1c(C)nc2c(c1C)c(=O)[nH]n2C`, the cytotoxicity at 70.5 h was -3.59%.

`O=C(Nc1ccc(OCc2cccc(F)c2)c(F)c1)C1COCCO1` (configuration not stated): the cytotoxicity at 70.5 h was -3.19%. On to `Cc1cc(C)cc(NC(=O)Cc2c(C)nc3c(c2C)c(=O)[nH]n3C)c1`, for which the cytotoxicity at 70.5 h is -0.0448%. `CCNC(=O)NC1CCN(c2ccc(S(=O)(=O)CC)cc2)CC1`: the cytotoxicity at 70.5 h stood at 0.434%. Turning to `COc1ncccc1NC(=O)N1CCC(c2ccc(O)cc2)CC1`, the cytotoxicity at 70.5 h was -3.42%.

For the molecule `COc1ccc(CNC(=O)NC2CCN(c3ccccc3)C2=O)cc1` (configuration not stated), the cytotoxicity at 70.5 h was -4.11%. On to `Cc1cnn(CC2CCCN2CC(=O)Nc2nncs2)c1` (configuration not stated), for which the cytotoxicity at 70.5 h was -5.64%. Regarding `CCc1nc(NS(=O)(=O)c2cc(C)cc(F)c2)no1`, the cytotoxicity at 70.5 h is -0.337%. On to `CCS(=O)(=O)NCc1cc(Br)c(OC)c(OC)c1`, for which the cytotoxicity at 70.5 h was -8.56%. Turning to `Cc1ccccc1C(O)CNS(=O)(=O)Cc1cccc(C#N)c1` (configuration not stated), the cytotoxicity at 70.5 h was -3.55%.

With `CCOCc1cccc(NC(=O)C2COCCO2)c1` (configuration not stated), the cytotoxicity at 70.5 h was -7.73%.

For the molecule `O=C(NCCc1ccc(F)cc1)NC1CCCc2c1cnn2CCO` (configuration not stated), the cytotoxicity at 70.5 h is -6.55%.

As to `CN(Cc1ccccc1)C(=O)CCNS(=O)(=O)c1cccnc1`, the cytotoxicity at 70.5 h turned out to be 11.8%. Take `COc1ccc(OCC(O)CN2CCN(c3nccs3)CC2)cc1` (configuration not stated): the cytotoxicity at 70.5 h is -2.04%. Next, `OC(COc1ccccc1)CN1CCN(c2nccs2)CC1` (configuration not stated): 0.888%. For `Cc1ccc(CN(C)C(=O)CCNS(=O)(=O)c2cccnc2)cc1`, the cytotoxicity at 70.5 h was -7.21%. In the case of `Cc1nc(CCNC(=O)NC2CCCc3c2cnn3CCO)cs1` (configuration not stated), the cytotoxicity at 70.5 h is -9.35%. On to `O=C(NCCC1=CCCCC1)NC1CCCc2c1cnn2CCO` (configuration not stated), for which the cytotoxicity at 70.5 h is -10.1%. `CCCN1CCN(C(=O)c2cnn(-c3ccccc3F)c2)CC1`: the cytotoxicity at 70.5 h is 8.36%.

`O=C(NCCN1CCOCC1)c1cnc(Cc2ccc(F)cc2)s1`: the cytotoxicity at 70.5 h is -8.24%. Take `Cc1cc(C)cc(OCC(O)CN2CCN(c3nccs3)CC2)c1` (configuration not stated): the cytotoxicity at 70.5 h worked out at 8.55%. As for `COC(=O)[C@H](C)NC(=O)c1cnc(Cc2ccc(F)cc2)s1`, the cytotoxicity at 70.5 h was -0.425%. Consider `COC(=O)C(C)(C)NC(=O)c1cnc(Cc2ccc(F)cc2)s1`, for which the cytotoxicity at 70.5 h is -2.02%. Consider `CCNC(=O)NCCc1csc(N2CCCC2)n1`, for which the cytotoxicity at 70.5 h is -9.41%. For `Cc1sc(C(=O)O)cc1S(=O)(=O)Nc1c(F)cccc1-n1cccn1`, the cytotoxicity at 70.5 h stood at 18.5%.

As to `Cc1nn(C)c(C)c1C1COCCN1c1ncncc1Br` (configuration not stated), the cytotoxicity at 70.5 h was -4.79%. Next, `CCN(CC1CN(CC2CCC2)CCO1)c1cccnn1` (configuration not stated): -6.19%; `COc1ccc(C(=O)N2CCOCC2c2ccc(C)o2)cc1` (configuration not stated): -9.97%; `Cc1ccc(C2COCCN2C(=O)c2ccc(F)c(F)c2)o1` (configuration not stated): -0.394%. Consider `Cc1cc(C)n(-c2ccc(N3CCC4(CC3)OCC(C)O4)nc2)n1` (configuration not stated), for which the cytotoxicity at 70.5 h is -8.82%. Next, `OC(CNc1cncc(OCc2ccccc2)n1)c1ccco1` (configuration not stated): -5.66%; `CC(C)(C)c1cc(NC(=O)C2COCCO2)n(-c2ccccn2)n1` (configuration not stated): -0.749%; `NC(=O)[C@@H]1Cc2ccccc2CN1CCc1cccs1`: -10%. As for `CNC(=O)C1Cc2ccccc2CN1CCc1cccs1` (configuration not stated), the cytotoxicity at 70.5 h was -8.64%. With `CC(C)(C)c1cc(NC(=O)C2CCCO2)n(-c2ccccn2)n1` (configuration not stated), the cytotoxicity at 70.5 h was -2.77%. Turning to `Cc1noc(Cl)c1CC(=O)NCCOc1ccc(F)cc1F`, the cytotoxicity at 70.5 h was -0.975%. Turning to `CN(c1cccc2ccccc12)S(=O)(=O)c1cc(C(=O)O)cs1`, the cytotoxicity at 70.5 h is -0.615%. Regarding `CCC(=O)NCC(=O)NCC(C)(C)c1cccc(Br)c1`, the cytotoxicity at 70.5 h was -5.47%.

Regarding `Cc1noc(C)c1CNC(=O)NCCOc1ccc(F)cc1F`, the cytotoxicity at 70.5 h is -3.02%. In the case of `Cc1cc(C)n(-c2ccc(N3CCC(O)CC3)nc2)n1` it was -1.96%. Take `CC(C)NC(=O)CN(C)C1CCN(c2ccc(Cl)cn2)CC1`: the cytotoxicity at 70.5 h was -7%. Next, `CCOc1ccc(CN(C)C2CCN(c3cc(C)nn3C)C2=O)cc1` (configuration not stated): 19.7%. With `CC(C)OCCCNC(=O)Nc1cccc2ncccc12`, the cytotoxicity at 70.5 h was -2.69%.

With `CC(C)(C)Cc1noc2ncc(C(=O)N3CCCSCC3)cc12`, the cytotoxicity at 70.5 h was found to be 11.1%. Consider `Cc1cc(N2CCC(N(C)Cc3cccnc3)C2=O)n(C)n1` (configuration not stated), for which the cytotoxicity at 70.5 h stood at 13.5%. As to `Cn1cc(C(=O)Nc2cccc(F)c2)ccc1=O`, the cytotoxicity at 70.5 h stood at 0.823%. In the case of `O=C(NCCNc1ccc(C(F)(F)F)cn1)c1ccoc1` it was -8.13%; in that of `Cc1cc(C)cc(C2(C(=O)NCC(C)CN3CCCC3=O)CC2)c1` (configuration not stated), -8.76%. With `Cc1ccc(C(=O)N2CCCCC2CNC(N)=O)s1` (configuration not stated), the cytotoxicity at 70.5 h is -6.25%. For the molecule `Cc1cccc(OCC(=O)N(C)C2CCN(CC3CCOC3)CC2)c1` (configuration not stated), the cytotoxicity at 70.5 h is -9.11%. Consider `CCc1cc(NC(=O)c2cccc(OCC(F)(F)F)n2)[nH]n1`, for which the cytotoxicity at 70.5 h is -2.9%. With `COc1cccc(C(O)Cn2ncc3ncccc3c2=O)c1` (configuration not stated), the cytotoxicity at 70.5 h is -10.1%. As to `CN1CCN(S(C)(=O)=O)c2cc(F)ccc21`, the cytotoxicity at 70.5 h is -14.8%. For the molecule `CC(C#N)CNS(=O)(=O)c1ccc(Br)c(F)c1` (configuration not stated), the cytotoxicity at 70.5 h was -8.29%. Next, `Cn1cc(C(=O)Nc2cccc(Oc3ccncc3)c2)ccc1=O`: -4.83%; `Cc1ccc(S(=O)(=O)NCC(C)C#N)cc1Br` (configuration not stated): -4.59%. With `CC(C)N1C(=O)CC(NC(=O)c2cc(Cl)sc2Cl)C1=O` (configuration not stated), the cytotoxicity at 70.5 h was -8.84%. For the molecule `Cc1cscc1C(=O)NC1CC(=O)N(C(C)C)C1=O` (configuration not stated), the cytotoxicity at 70.5 h was -4.89%.

With `CN(C)c1ncncc1NC(=O)Cc1c[nH]c2ccc(F)cc12`, the cytotoxicity at 70.5 h is -2.95%. In the case of `COc1ncnc(N(C)C)c1NC(=O)Cc1cc(F)ccc1F` it was -5.92%. In the case of `CCc1nnc2ccc(NCC3(N4CCCCC4)CCOCC3)nn12` it was -7.09%; in that of `CC1C(=O)Nc2cccnc2N1S(=O)(=O)c1ccc(C#N)c(Cl)c1` (configuration not stated), -6.2%; in that of `CCN(Cc1ccoc1)C(=O)c1ccc(C)c(S(N)(=O)=O)c1`, -10.2%. Consider `Cc1cc(N)nc(SC2CCCN(Cc3ccccc3)C2=O)n1` (configuration not stated), for which the cytotoxicity at 70.5 h is -9.67%. As to `NC(=O)C1CCN(C(=O)c2ccccc2OCc2ccccc2Cl)CC1`, the cytotoxicity at 70.5 h was 12.3%. On to `O=S(=O)(N1CCCCCC1)N1CCc2sccc2C1`, for which the cytotoxicity at 70.5 h was -5.4%.

With `O=S(=O)(N1CCCCCC1)N1CCN(Cc2ccc(F)cc2Br)CC1`, the cytotoxicity at 70.5 h is -4.85%. On to `Cc1cc(C(=O)NCCN2CCCc3ccccc32)[nH]n1`, for which the cytotoxicity at 70.5 h was found to be 22.8%. For `CN(C)c1nc(N)nc(CSCCC(=O)Nc2ccc(F)cc2)n1`, the cytotoxicity at 70.5 h is -7.07%. As to `Cc1ccc(S(=O)(=O)NCc2cnn(C)c2)c(F)c1`, the cytotoxicity at 70.5 h is -3.12%. Consider `Cc1nn(CC(C)C)c(N(C)C)c1CNCCC(=O)NC(C)C`, for which the cytotoxicity at 70.5 h came to 23%.

`Cn1cc(NC(=O)CCCc2cccs2)c(=O)n(C)c1=O`: the cytotoxicity at 70.5 h worked out at 5.9%. Consider `Cc1ncc(Cl)c(C(=O)N2CC(=O)N(C)c3ccccc32)n1`, for which the cytotoxicity at 70.5 h was -9.43%.

In the case of `CNS(=O)(=O)CC(=O)N(Cc1ccsc1)c1ccccc1`, the cytotoxicity at 70.5 h was -8.25%. Take `COCCOCC(=O)NC(C#N)c1cc(Cl)cc(Cl)c1` (configuration not stated): the cytotoxicity at 70.5 h worked out at 19.4%. With `Cn1ccnc1-c1noc(NCc2ccc3c(c2)OCCO3)n1`, the cytotoxicity at 70.5 h came out at 8.69%. For `CN(C)c1nccc(N(C)Cc2nc3ccccc3n2C)n1`, the cytotoxicity at 70.5 h worked out at 10.9%. In the case of `N#Cc1nccnc1N1CCC(Cc2ccccc2)C1` (configuration not stated), the cytotoxicity at 70.5 h was -3.44%.

With `Cc1nc(C2CCCN2Cc2cc(Cl)c3c(c2)OCCCO3)no1` (configuration not stated), the cytotoxicity at 70.5 h was -7.15%. Regarding `O=C(C1CCCN(Cc2cccc(F)c2)C1)N1CCc2sccc2C1` (configuration not stated), the cytotoxicity at 70.5 h turned out to be 0.518%.

`N#Cc1nccnc1N1CCC(COCc2ccccc2)C1` (configuration not stated): the cytotoxicity at 70.5 h is -4.27%. Next, `Cc1ccc(C2CN(Cc3cnc(-c4cccnc4)s3)CCO2)o1` (configuration not stated): 7.31%.

Turning to `Cc1nc(CN(C)C(=O)NC(C)c2ccc3c(c2)OCCO3)cs1` (configuration not stated), the cytotoxicity at 70.5 h came out at 36.4%. Consider `Cc1cc(F)ccc1N1CCCC(NC2CCOCC2)C1=O` (configuration not stated), for which the cytotoxicity at 70.5 h amounted to 31.7%. As for `COC(=O)CN(C(=O)c1ccc(-n2ccnc2)cc1)C1CCCC1`, the cytotoxicity at 70.5 h was 27.9%. For `CC(C)CC(NC(=O)c1ccn(C)c(=O)c1)c1ccccc1` (configuration not stated), the cytotoxicity at 70.5 h turned out to be 33.2%. As for `Cc1nc(CNC(=O)NC(C)c2ccc3c(c2)OCCO3)cs1` (configuration not stated), the cytotoxicity at 70.5 h was 53.9%. Next, `Cc1nc(CNC(=O)NC(C)c2ccc3c(c2)OCCCO3)cs1` (configuration not stated): -0.884%. With `Cc1nn(CCO)c(C)c1CNC1CCOc2ccccc21` (configuration not stated), the cytotoxicity at 70.5 h is -2.7%. `CCCC(N)CNS(=O)(=O)Cc1cccc(C#N)c1` (configuration not stated): the cytotoxicity at 70.5 h was -3.64%. Turning to `NC(CC1CCCCC1)c1ccccc1` (configuration not stated), the cytotoxicity at 70.5 h was found to be 5.79%.
